≈ marks a conversion by molar mass, not a printed value. Where two headings read alike, the source gives them in different places. Numbered stars: 1 amine (or outer) side, 2 acyl side, 3 side chain; on linkers, the order of the positions; unused ones are H or OH. Bridge positions count the residues as written; N and C are the ends. Square brackets hold non-standard residues; d marks the D form. Peptide text beside a SMILES is read from it. * marks the point of attachment. Lys(Me,(CH2)4NMe(CH2)4CO) = CN(CCCCC(=O)[*:3])CCCCN(C)CCCC[C@H](N[*:1])C(=O)[*:2]; X3 = Cc1cccc2c(C[C@H](N[*:1])C(=O)[*:2])cn(C)c12; Trp(7-Me) = Cc1cccc2c(C[C@H](N)C(=O)O)c[nH]c12; NH(2-(3-pyridyl)ethyl) = c1cncc(CCN*)c1; NH(CH2)9CO = O=C(CCCCCCCCCN[*:1])[*:2]; 2Nal = N[C@@H](Cc1ccc2ccccc2c1)C(=O)O; X4 = O=C(CCCCCCCCCCCCCCCN[*:1])[*:2]; 3Pal = N[C@@H](Cc1cccnc1)C(=O)O; Aun = NCCCCCCCCCCC(=O)O; Thp = NC1(C(=O)O)CCOCC1; Me2NCH2CH2 = CN(C)CC*; Aib = CC(C)(N)C(=O)O; Aoc = NCCCCCCCC(=O)O; Sar = CNCC(=O)O
Tests used:
[1] = Solubility of peptide compounds in buffer formulations (Table 5); assay type: physicochemical; settings: target 1 mg/ml
How it was run: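 Solubility was quantified by UHPLC-UV, comparing 1:10-diluted filtrate peak areas with a DMSO reference standard and correcting for extinction coefficients. Samples were prepared from dried DMSO stock at 1 mg/mL nominal in pH 1.2 HCl, pH 6.5 or pH 7.4 phosphate (50 mM), and agitated 2 h.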

[2] = Protease stability in simulated intestinal fluids (FaSSIF) (Table 7); assay type: in vitro ADME; settings: fassif with pancreatin, 37° C.; for remaining at 1 h, 1 µM: 60 min, read-out: Remaining percentage of peptide compound, FaSSIF 60 (min); for remaining at 2 h, 1 µM: 120 min, read-out: Remaining percentage of peptide compound, FaSSIF 120 (min); for remaining at 4 h, 1 µM: 240 min, read-out: Remaining percentage of peptide compound, FaSSIF 240 (min)
How it was run: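 Percent parent remaining was derived from LC-MS/MS peak areas normalised to time 0, set at 100%. Sampling at 0, 60, 120 and 240 min, quenched in ethanol with 0.1% HCOOH. Final peptide 1 μM, 37° C, SIF containing pancreatin.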

[3] = Protease stability in simulated gastric fluids (FaSSGF) (Table 7); assay type: in vitro ADME; settings: fassgf with pepsin, 60 min, 37° C., read-out: Remaining percentage of peptide compound, FaSSGF 60 (min)
How it was run: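 Peptides at 1 μM final were incubated at 37 °C in simulated gastric fluid with pepsin (320 mg per 100 mL SGF concentrate). Samples were quenched with ethanol (0.1% HCOOH) at 0, 60, 120 and 240 min and analysed by LC-MS/MS. Percent remaining is the peak area relative to T0 (100%).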

human IL-23R = target: T1, human IL-23R (Homo sapiens, UniProt Q5VWK5); experiment: Inhibition of IL-23 binding to IL-23R as measured by ELISA (Table 8); settings: human IL23 coated 1 μg/ml; human IL-23R-Fc 0.1 μg/ml; 60 min; read-out: Human ELISA IL23/IL23R IC50
T1 sequence (Q5VWK5 24-353 limits assumed): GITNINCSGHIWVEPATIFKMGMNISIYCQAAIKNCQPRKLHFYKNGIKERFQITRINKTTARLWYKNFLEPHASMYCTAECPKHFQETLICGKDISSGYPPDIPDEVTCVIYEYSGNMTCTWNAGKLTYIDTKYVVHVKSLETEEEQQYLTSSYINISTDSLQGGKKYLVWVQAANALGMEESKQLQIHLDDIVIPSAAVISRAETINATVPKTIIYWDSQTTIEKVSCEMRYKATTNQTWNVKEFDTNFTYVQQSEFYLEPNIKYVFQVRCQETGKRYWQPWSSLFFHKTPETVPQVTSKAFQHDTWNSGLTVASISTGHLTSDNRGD
Protocol: Antagonism of compounds for human interleukin-23 receptor inhibitors, was determined by an ELISA assay.
A 384-well plate was coated with 50 μl/well of human IL23 at a final concentration of 1 μg/ml and incubated overnight at 4° C. The wells were washed 3 times with 80 μl wash buffer and blocked with 80 μl blocking buffer for 60 minutes at room temperature and washed again. 20 μl of serially diluted test peptides was added to each well and subsequently 20 μl of recombinant human IL-23R-Fc chimera at final concentration of 0.1 μg/ml. The plate was incubated for 60 minutes at room temperature. After the wells were washed, bound IL23R-Fc was detected with goat anti-hu-IgG1-HRP antibody. Signals were visualized with QUANTABLU fluorogenic peroxidase substrate.

[4] = test system: IL-23 induced STAT3 signaling (IL-23 receptor) in HEK-Blue IL-23 cells; experiment: Inhibition of IL-23 induced STAT3 signaling in HEK-Blue IL-23 cells, SEAP reporter (Table 9); assay type: cell-based; settings: human IL23 0.25 ng/ml, overnight, read-out: Inhibition of IL-23 induced pSTAT3 (IC50 nM)
How it was run: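 STAT3-driven SEAP output measured at OD 620–655 nm after 45 min QUANTI-Blue development of supernatant, with dose-response fits. Peptides were given 60 min ahead of 0.25 ng/ml (final) human IL-23, followed by overnight culture at 37 °C; 10,000 HEK-Blue IL-23 cells per well.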

[5] = Chemical stability (relative purity loss) of peptide compounds in buffer formulations (Table 6); assay type: physicochemical; settings: 2° C. and 37° C.
How it was run: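 Compounds at 0.5 mg/mL in 50 mM HCl pH 1.2, 50 mM phosphate pH 6.5 or pH 7.4, each with acetonitrile (3:1), stored 24 hours at 2° C and 37° C. Purity measured by UHPLC-UV before and after. Stability expressed as relative purity loss.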

[6] = Buffer pH 1.1 (head; method: 50 mM HCl pH 1.2), 2 h agitation, read-out: Solubility, Buffer pH 1.1
[7] = aqueous buffer, 50 mM phosphate buffer pH 6.5, 2 h agitation, read-out: Solubility, Buffer pH 6.5
[8] = aqueous buffer, 50 mM phosphate buffer pH 7.4, 2 h agitation, read-out: Solubility, Buffer pH 7.4
[9] = 50 mM phosphate buffer pH 6.5 + acetonitrile (3:1), read-out: Chemical stability (relative purity loss), Buffer pH 6.5
[10] = 50 mM phosphate buffer pH 7.4 + acetonitrile (3:1), read-out: Chemical stability (relative purity loss), Buffer pH 7.4
[11] = 50 mm hcl + acetonitrile, Buffer pH 1.1 (head; method: 50 mM HCl pH 1.2 + acetonitrile 3:1), read-out: Chemical stability (relative purity loss), Buffer pH 1.1

| Compound | solubility at 2 h [1, 6] [µg/mL] | solubility at 2 h [1, 7] [µg/mL] | solubility at 2 h [1, 8] [µg/mL] | remaining at 1 h, 1 µM [2] [%] | remaining at 2 h, 1 µM [2] [%] | remaining at 4 h, 1 µM [2] [%] | remaining at 1 h, 1 µM [3] [%] | IC50 (human IL-23R) [nM] | degraded at 24 h [5, 9] [%] | degraded at 24 h [5, 10] [%] | degraded at 24 h [5, 11] [%] | IC50 [4] [nM] |
| --- | --- | --- | --- | --- | --- | --- | --- | --- | --- | --- | --- | --- |
| Cc1cccc2c(C[C@@H]3NC(=O)CCCCCCCCCCCCCCCNC(=O)CC[C@@H](C(=O)N[C@@H](CC(N)=O)C(=O)N[C@@H](Cc4cccnc4)C(=O)N(C)CC(N)=O)NC(=O)C(C)(C)NC(=O)[C@H](Cc4ccc5ccccc5c4)NC(=O)[C@H](Cc4ccc(OCCN(C)C)cc4)NC(=O)C4(CCOCC4)NC(=O)[C@H](CCC(N)=O)NC3=O)c[nH]c12 [compound 3] ([X4][Trp(7-Me)]Q[Thp]Y(Me2NCH2CH2)[2Nal][Aib]EN[3Pal][Sar]-NH2; lactam N-8) | ≥ 990 | < 10 | < 10 | 84 | 81 | 81 | 71 | 1.33 | – | – | – | 9.92 |
| Cc1cccc2c(C[C@@H]3NC(=O)CCCCCCCCCNC(=O)CC[C@@H](C(=O)N[C@@H](CC(N)=O)C(=O)N[C@@H](Cc4cccnc4)C(=O)N(C)CC(N)=O)NC(=O)C(C)(C)NC(=O)[C@H](Cc4ccc5ccccc5c4)NC(=O)[C@H](Cc4ccc(OCCN(C)C)cc4)NC(=O)C4(CCOCC4)NC(=O)[C@H](CCC(N)=O)NC3=O)c[nH]c12 [compound 5] ([NH(CH2)9CO][Trp(7-Me)]Q[Thp]Y(Me2NCH2CH2)[2Nal][Aib]EN[3Pal][Sar]-NH2; lactam N-8) | ≥ 1010 | 350 (≈ 218 µM) | 170 (≈ 106 µM) | 77 | 74 | 70 | 87 | 0.64 | – | – | – | 0.26 |
| Cc1cccc2c(C[C@@H]3NC(=O)CCCCCCCNC(=O)CC[C@@H](C(=O)N[C@@H](CC(N)=O)C(=O)N[C@@H](Cc4cccnc4)C(=O)N(C)CC(N)=O)NC(=O)C(C)(C)NC(=O)[C@H](Cc4ccc5ccccc5c4)NC(=O)[C@H](Cc4ccc(OCCN(C)C)cc4)NC(=O)C4(CCOCC4)NC(=O)[C@H](CCC(N)=O)NC3=O)c[nH]c12 [compound 6] ([Aoc][Trp(7-Me)]Q[Thp]Y(Me2NCH2CH2)[2Nal][Aib]EN[3Pal][Sar]-NH2; lactam N-8) | ≥ 1240 | ≥ 1040 | ≥ 1090 | 86 | 77 | 77 | 88 | 0.67 | – | – | – | 4.77 |
| Cc1cccc2c(C[C@@H]3NC(=O)CCCCN(C)CCCCN(C)CCCC[C@@H](C(=O)NCC(=O)NCCc4cccnc4)NC(=O)C(C)(C)NC(=O)[C@H](Cc4ccc5ccccc5c4)NC(=O)[C@H](Cc4ccc(OCCN(C)C)cc4)NC(=O)C4(CCOCC4)NC(=O)[C@H](CCC(N)=O)NC3=O)c[nH]c12 [compound 24] ([Trp(7-Me)]Q[Thp]Y(Me2NCH2CH2)[2Nal][Aib][Lys(Me,(CH2)4NMe(CH2)4CO)]G-{NH(2-(3-pyridyl)ethyl)}; lactam N-7) | ≥ 990 | ≥ 900 | ≥ 880 | – | – | – | – | 0.84 | – | – | – | 6.95 |

The next lines start with results.

| solubility at 2 h [1, 6] [µg/mL] | solubility at 2 h [1, 7] [µg/mL] | solubility at 2 h [1, 8] [µg/mL] | remaining at 1 h, 1 µM [2] [%] | remaining at 2 h, 1 µM [2] [%] | remaining at 4 h, 1 µM [2] [%] | remaining at 1 h, 1 µM [3] [%] | IC50 (human IL-23R) [nM] | degraded at 24 h [5, 9] [%] | degraded at 24 h [5, 10] [%] | degraded at 24 h [5, 11] [%] | Compound | IC50 [4] [nM] |
| --- | --- | --- | --- | --- | --- | --- | --- | --- | --- | --- | --- | --- |
| ≥ 970 | ≥ 1050 | ≥ 1220 | 96 | 84 | 75 | 71 | – | 0 | 0.7 | 5.2 | CN(C)CCOc1ccc(C[C@@H]2NC(=O)C3(CCOCC3)NC(=O)[C@H](CCC(N)=O)NC(=O)[C@H](Cc3c[nH]c4ccccc34)NC(=O)CCCCN(C)CCCCN(C)CCCC[C@@H](C(=O)N[C@@H](CO)C(=O)N[C@@H](Cc3cccnc3)C(=O)N(C)CC(N)=O)NC(=O)C3(CCOCC3)NC(=O)[C@H](Cc3ccc4ccccc4c3)NC2=O)cc1 [compound 43] (WQ[Thp]Y(Me2NCH2CH2)[2Nal][Thp][Lys(Me,(CH2)4NMe(CH2)4CO)]S[3Pal][Sar]-NH2; lactam N-7) | 2.02 |
| ≥ 960 | ≥ 1050 | ≥ 890 | 88 | 85 | 85 | 100 | – | 0 | 0 | 6 | Cc1cccc2c(C[C@@H]3NC(=O)CCCCN(C)CCCCN(C)CCCC[C@@H](C(=O)N[C@@H](CC(N)=O)C(=O)N[C@@H](Cc4cccnc4)C(=O)N(C)CC(N)=O)NC(=O)C(C)(C)NC(=O)[C@H](Cc4ccc5ccccc5c4)NC(=O)[C@H](Cc4ccc(OCCN(C)C)cc4)NC(=O)C4(CCOCC4)NC(=O)[C@H](CCC(N)=O)NC3=O)c[nH]c12 [compound 46] ([Trp(7-Me)]Q[Thp]Y(Me2NCH2CH2)[2Nal][Aib][Lys(Me,(CH2)4NMe(CH2)4CO)]N[3Pal][Sar]-NH2; lactam N-7) | 0.72 |
| ≥ 900 | 250 (≈ 171 µM) | 40 (≈ 27.4 µM) | 100 | 100 | 101 | 99 | – | 0 | 0 | 0 | Cc1cccc2c(C[C@@H]3NC(=O)CCCCN(C)CCCCN(C)CCCC[C@@H](C(=O)NCC(=O)NCCc4cccnc4)NC(=O)C(C)(C)NC(=O)[C@H](Cc4ccc5ccccc5c4)NC(=O)[C@H](Cc4ccc(OCCN(C)C)cc4)NC(=O)C4(CCOCC4)NC(=O)[C@H](CC(C)C)NC3=O)cn(C)c12 [compound 49] ([X3]L[Thp]Y(Me2NCH2CH2)[2Nal][Aib][Lys(Me,(CH2)4NMe(CH2)4CO)]G-{NH(2-(3-pyridyl)ethyl)}; lactam N-7) | 35.4 |
| ≥ 1180 | 340 (≈ 200 µM) | 130 (≈ 76.4 µM) | 91 | 92 | 91 | 84 | – | 0 | 0.1 | 3.4 | CC(=O)NCCCC[C@@H]1NC(=O)[C@H](Cc2c[nH]c3c(C)cccc23)NC(=O)CCCCCCCCCCNC(=O)CC[C@@H](C(=O)N[C@@H](CC(N)=O)C(=O)N[C@@H](Cc2cccnc2)C(=O)N(C)CC(N)=O)NC(=O)C2(CCOCC2)NC(=O)[C@H](Cc2ccc3ccccc3c2)NC(=O)[C@H](Cc2ccc(OCCN(C)C)cc2)NC(=O)C2(CCOCC2)NC1=O [compound 50] ([Aun][Trp(7-Me)]K(Ac)[Thp]Y(Me2NCH2CH2)[2Nal][Thp]EN[3Pal][Sar]-NH2; lactam N-8) | 0.19 |

From patent US20260297129A1, “PEPTIDES AS SELECTIVE IL-23 RECEPTOR INHIBITORS” (SANOFI, priority 2023, published 2026)
